In test [1] the target is T1, E3 ubiquitin-protein ligase CBL (Homo sapiens, UniProt P22681). Kind of test: Cbl-b and C-Cbl LCK Ub TR-FRET Assay. The protocol:
6 μL of detection mixture was added to all wells and briefly centrifuged before incubating for 20 min at room temperature. […] IC50 was generated using no LCK as the low control and DMSO as the high control.

For test [2], the target named is T1, E3 ubiquitin-protein ligase CBL. Kind of test: Multi-Point Chaser SPR Assay Variation. The method, then: (§1) Table 4: Chaser assay utilize a single cycle kinetics SPR experiment with a contact time of 120 seconds, a flow rate of 50 μl/min and a dissociation time of 450 seconds. […] The kd is measured independently by determining the percentage unoccupied compound binding site over time by measuring the binding of a chaser compound measured by SPR.Chaser binding was measured by a multicycle kinetics SPR experiment using a contact time of 20 seconds, a flow rate of 30 μl/min, and a dissociation time of 120 seconds. […] The % compound bound at a given time was determined by comparison to a single injection of chaser preceding the single cycle kinetics titration defined below.% Compound Bound=(1−(RUT/RUT0))*100

Test [3] has as its target E3 ubiquitin-protein ligase CBL-B (Homo sapiens, UniProt Q13191). In words: Multi-Point Chaser SPR Assay Variation. The protocol: as §1

Sequence of E3 ubiquitin-protein ligase CBL-B (Q13191 whole entry): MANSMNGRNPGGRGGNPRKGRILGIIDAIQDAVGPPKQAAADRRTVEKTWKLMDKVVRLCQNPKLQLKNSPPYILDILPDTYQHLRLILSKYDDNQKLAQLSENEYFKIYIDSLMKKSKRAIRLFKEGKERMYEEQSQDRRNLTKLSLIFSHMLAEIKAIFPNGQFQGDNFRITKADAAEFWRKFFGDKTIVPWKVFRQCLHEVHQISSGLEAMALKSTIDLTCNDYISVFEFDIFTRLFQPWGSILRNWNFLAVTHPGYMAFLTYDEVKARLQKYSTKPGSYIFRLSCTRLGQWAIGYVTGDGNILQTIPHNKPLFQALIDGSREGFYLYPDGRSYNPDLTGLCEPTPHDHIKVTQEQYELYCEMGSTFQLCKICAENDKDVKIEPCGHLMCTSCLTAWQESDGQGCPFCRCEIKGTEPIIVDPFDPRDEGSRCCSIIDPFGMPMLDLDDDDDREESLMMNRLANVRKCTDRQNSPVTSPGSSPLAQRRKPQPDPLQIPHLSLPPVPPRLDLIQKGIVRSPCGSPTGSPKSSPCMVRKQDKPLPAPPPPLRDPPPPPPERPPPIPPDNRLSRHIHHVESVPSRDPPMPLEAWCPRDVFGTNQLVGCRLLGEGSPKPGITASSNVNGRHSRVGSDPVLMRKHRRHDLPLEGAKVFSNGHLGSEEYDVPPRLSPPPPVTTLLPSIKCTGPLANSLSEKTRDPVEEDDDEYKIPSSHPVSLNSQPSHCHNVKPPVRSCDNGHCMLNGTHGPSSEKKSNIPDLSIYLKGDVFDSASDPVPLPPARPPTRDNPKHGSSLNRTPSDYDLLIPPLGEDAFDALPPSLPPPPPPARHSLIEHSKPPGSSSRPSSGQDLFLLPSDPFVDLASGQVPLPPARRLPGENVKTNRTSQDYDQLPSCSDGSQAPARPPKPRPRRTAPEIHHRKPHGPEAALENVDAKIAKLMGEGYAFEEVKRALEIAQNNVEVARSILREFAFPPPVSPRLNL

In the case of `Cn1cnnc1[C@]1(c2cc(NC3CCCCC3)nc(N3Cc4c(cc(CNC5(C)CCC5)cc4C(F)(F)F)C3=O)c2)C[C@H](C)C1` [US12187709, Compound 51], the IC50 in test [1] was found to be 61 nM.

`Cn1cnnc1[C@]1(c2cc(NC3CCCCC3)nc(N3Cc4c(cc(CNC5(C)CCC5)cc4C(F)(F)F)C3=O)c2)C[C@@H](C)C1` [US12187709, Compound 50] had a half-inhibitory concentration (IC50) in test [1] of 53 nM. Besides, the dissociation constant Kd in test [2] amounted to 20 nM; in test [3] it was 6.5 nM.

For the molecule `Cn1cnnc1[C@]1(c2cc(NC3CCCC3)nc(N3Cc4c(cc(CNC5(C)CCC5)cc4C(F)(F)F)C3=O)c2)C[C@@H](C)C1` [US12187709, Compound 52], the IC50 in test [1] came to 9.4 nM. Further, the Kd is 11 nM in test [2] and 0.95 nM in test [3].

`CC(=O)N1CC(c2cccc(N3Cc4c(cc(CNC5(C)CCC5)cc4C(F)(F)F)C3=O)c2)(c2nncn2C)C1` [US12187709, Compound 112] had an IC50 in test [1] of no less than 20000 nM.

In test [1], `Cn1cnnc1[C@]1(c2cc(OC3CCCC3)nc(N3Cc4c(cc(CNC5(C)CCC5)cc4C(F)(F)F)C3=O)c2)C[C@H](C)C1` [US12187709, Compound 54] returned an IC50 of 115 nM. Further, the values for the dissociation constant (Kd) in test [2] and in test [3] were 15 nM and 1.3 nM, respectively.

As for `CO[C@@](c1cccc(N2Cc3c(cc(CNC4(C)CCC4)cc3C(F)(F)F)C2=O)c1)(c1nncn1C)C1CCC1` (single isomer, unassigned) [US12187709, Compound 118], the IC50 in test [1] was no less than 20000 nM.

The molecule `Cn1cnnc1[C@]1(c2cc(OC3CCCC3)nc(N3Cc4c(cc(CNC5(C)CCC5)cc4C(F)(F)F)C3=O)c2)C[C@@H](C)C1` [US12187709, Compound 55] returned an IC50 in test [1] of 9.4 nM.

In turn, `Cn1cnnc1[C@]1(c2cc(NC3CCCC3)nc(N3Cc4c(cc(CNC5(C)CCC5)cc4C(F)(F)F)C3=O)c2)C[C@H](C)C1` [US12187709, Compound 53] showed an IC50 in test [1] of 6.3 nM. Further, the Kd in test [2] stood at 6.5 nM; in test [3] it was 0.7 nM.

A word on the IC50: it is the concentration that gives 50% inhibition. Higher therefore signals weaker potency. Broadly, the Kd is the constant that tells how readily two partners part at equilibrium.

Source of the values: BindingDB's records for patent US12187709 (Genentech, 2025).
